We go through 11 compounds from patent US20240116985A1, “STAPLED PEPTIDES AND METHODS THEREOF” (priority 2020, published 2024).

The target of assay [1] is T1, beta-catenin/TCF4 engagement (Homo sapiens, UniProt P35222).
T1 construct: expressed in transfected cells; host or cells: HEK293
T1 sequence (P35222 1-781): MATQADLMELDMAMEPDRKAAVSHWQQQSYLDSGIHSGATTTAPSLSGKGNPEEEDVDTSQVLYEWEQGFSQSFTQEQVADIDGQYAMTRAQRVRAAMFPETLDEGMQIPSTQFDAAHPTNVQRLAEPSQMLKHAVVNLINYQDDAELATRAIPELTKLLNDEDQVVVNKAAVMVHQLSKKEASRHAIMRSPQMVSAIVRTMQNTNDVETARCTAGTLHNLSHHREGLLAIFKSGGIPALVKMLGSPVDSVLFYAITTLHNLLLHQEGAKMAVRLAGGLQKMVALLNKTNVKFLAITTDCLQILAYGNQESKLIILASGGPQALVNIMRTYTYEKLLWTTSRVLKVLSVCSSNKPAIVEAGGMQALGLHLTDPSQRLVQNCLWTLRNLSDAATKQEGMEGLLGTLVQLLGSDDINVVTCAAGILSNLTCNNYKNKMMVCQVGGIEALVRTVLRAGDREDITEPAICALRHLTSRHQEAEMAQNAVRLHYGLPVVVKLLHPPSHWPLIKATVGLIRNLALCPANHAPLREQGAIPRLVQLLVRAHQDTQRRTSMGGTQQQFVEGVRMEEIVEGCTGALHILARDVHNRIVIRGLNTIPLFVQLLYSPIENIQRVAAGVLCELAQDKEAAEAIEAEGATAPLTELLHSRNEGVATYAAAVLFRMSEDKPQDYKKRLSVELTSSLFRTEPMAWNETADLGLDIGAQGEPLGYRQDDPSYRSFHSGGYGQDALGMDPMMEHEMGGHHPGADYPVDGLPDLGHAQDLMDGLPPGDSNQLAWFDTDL
As to the kind of experiment: Nano-BRET target engagement assay (B-cat-Halo & TCF4-Luc in HEK293 cells). It counts as cell-based. As to conditions: absolute IC50; read-out: NanoBRET Abs IC50.

Assay [2] has as its target T2, full-length beta-Catenin (Uniprot ID P35222) (Homo sapiens, UniProt P35222).
T2 construct: 10 nM full-length beta-Catenin (Uniprot ID P35222)
T2 sequence (P35222 1-781): T1 sequence (P35222 1-781)
As to the kind of experiment: Fluorescence polarization IC50 (beta-catenin / 5FAM-TCF4 10-53 competition). Conditions: fluorescence polarization; read-out: beta-Catenin FP IC50. The format is binding.

`CC(=O)N1CCC[C@]12CC=CCCCC1(CCCC=CCCCOC(=O)N3CC[C@@](C(=O)N[C@@H](Cc4ccsc4)C(=O)N[C@@H](Cc4csc5ccccc45)C(=O)N[C@@H](CCC(=O)N4CC[C@@H](N(C)C)C4)C(N)=O)(C3)NC(=O)[C@H](CC(C)C)NC(=O)[C@H](Cc3ccccc3)NC(=O)[C@H](C)NC(=O)[C@H](C)NC(=O)[C@H](CN(CC(=O)O)CC(F)(F)F)NC(=O)[C@H](CC(=O)O)NC1=O)NC(=O)[C@H](CC(C)(C)C)NC(=O)[C@H](CC(=O)O)NC2=O` (stereo partly drawn) [I-1805, Ac-PL3-Asp-Npg-B5-Asp-TfeGA-Ala-Ala-Phe-Leu-PyrS2-3Thi-BztA-[RDMAPyr]GlnR-NH2]: the IC50 in assay [1] stood at 9300 nM; in assay [2], 6 nM.

For the compound `CC(=O)N1CCC[C@]12CCCCCCC1(CCCCCCCCOC(=O)N3CC[C@@](C(=O)N[C@@H](Cc4ccsc4)C(=O)N[C@@H](Cc4csc5ccccc45)C(=O)N[C@@H](CCC(N)=O)C(N)=O)(C3)NC(=O)[C@H](CC(C)C)NC(=O)[C@H](Cc3ccccc3)NC(=O)[C@H](C)NC(=O)[C@H](C)NC(=O)[C@H](CC(=O)O)NC(=O)[C@H](CC(=O)O)NC1=O)NC(=O)[C@H](CC(C)(C)C)NC(=O)[C@H](CC(=O)O)NC2=O` (stereo partly drawn) [I-1808, Ac-PL3-Asp-Npg-B5-Asp-Asp-Ala-Ala-Phe-Leu-PyrS2-3Thi-BztA-Gln-NH2], the results for the IC50 in assay [1] and in assay [2] were 14000 nM and 90 nM, respectively.

For `CC(=O)N1CCC[C@]12CC=CCCCC1(CCCC=CCCOC(=O)N3CC[C@@](C(=O)N[C@@H](Cc4ccsc4)C(=O)N[C@@H](Cc4csc5ccccc45)C(=O)N[C@@H](CCC(N)=O)C(N)=O)(C3)NC(=O)[C@H](CC(N)=O)NC(=O)[C@H](Cc3ccccc3)NC(=O)[C@H](C)NC(=O)[C@H](C)NC(=O)[C@H](CC(=O)O)NC(=O)[C@H](CC(=O)O)NC1=O)NC(=O)[C@H](CC(C)(C)C)NC(=O)[C@H](CC(=O)O)NC2=O` (stereo partly drawn) [I-1813, Ac-PL3-Asp-Npg-B5-Asp-Asp-Ala-Ala-Phe-Asn-PyrS1-3Thi-BztA-Gln-NH2], the IC50 is more than 20000 nM in assay [1] and 26 nM in assay [2].

In the case of `CC(=O)N1CCC[C@]12CC=CCCCC1(CCCC=CCCOC(=O)N3CC[C@@](C(=O)N[C@@H](Cc4ccsc4)C(=O)N[C@@H](Cc4csc5ccccc45)C(=O)N[C@@H](CCC(N)=O)C(N)=O)(C3)NC(=O)[C@H](CC(C)C)NC(=O)[C@H](Cc3ccccc3)NC(=O)[C@H](C)NC(=O)[C@H](C)NC(=O)[C@H](CC(=O)O)NC(=O)[C@H](CC(=O)O)NC1=O)NC(=O)[C@H](CC(C)(C)C)NC(=O)[C@H](CC(=O)O)NC2=O` (stereo partly drawn) [I-1815, Ac-PL3-Asp-Npg-B5-Asp-Asp-Ala-Ala-Phe-Leu-PyrS1-3Thi-BztA-Gln-NH2], the IC50 is more than 20000 nM in assay [1] and 46 nM in assay [2].

Turning to `CC(=O)N1CCC[C@]12CC=CCCCC1(CCCC=CCOC(=O)N3CC[C@@](C(=O)N[C@@H](Cc4ccsc4)C(=O)N[C@@H](Cc4csc5ccccc45)C(=O)N[C@@H](CCC(N)=O)C(N)=O)(C3)NC(=O)[C@H](CC(C)C)NC(=O)[C@H](Cc3ccccc3)NC(=O)[C@H](C)NC(=O)[C@H](C)NC(=O)[C@H](CC(=O)O)NC(=O)[C@H](CC(=O)O)NC1=O)NC(=O)[C@H](CC(C)(C)C)NC(=O)[C@H](CC(=O)O)NC2=O` (stereo partly drawn) [I-1818, Ac-PL3-Asp-Npg-B5-Asp-Asp-Ala-Ala-Phe-Leu-PyrS-3Thi-BztA-Gln-NH2], the IC50 in assay [1] is more than 20000 nM; in assay [2], 236 nM.

With `CC(=O)N1CCC[C@]12CCCCCCC1(CCCCCCCOC(=O)N3CC[C@@](C(=O)N[C@@H](Cc4ccsc4)C(=O)N[C@@H](Cc4csc5ccccc45)C(=O)N[C@@H](CCC(N)=O)C(N)=O)(C3)NC(=O)[C@H](CC(N)=O)NC(=O)[C@H](Cc3ccccc3)NC(=O)[C@H](C)NC(=O)[C@H](C)NC(=O)[C@H](CC(=O)O)NC(=O)[C@H](CC(=O)O)NC1=O)NC(=O)[C@H](CC(C)(C)C)NC(=O)[C@H](CC(=O)O)NC2=O` (stereo partly drawn) [I-1821, Ac-PL3-Asp-Npg-B5-Asp-Asp-Ala-Ala-Phe-Asn-PyrS1-3Thi-BztA-Gln-NH2], the IC50 was more than 20000 nM in assay [1] and 67 nM in assay [2].

On to `CC(=O)N1CCC[C@]12CCCCCCC1(CCCCCCCOC(=O)N3CC[C@@](C(=O)N[C@@H](Cc4ccsc4)C(=O)N[C@@H](Cc4csc5ccccc45)C(=O)N[C@@H](CCC(N)=O)C(N)=O)(C3)NC(=O)[C@H](CC(C)C)NC(=O)[C@H](Cc3ccccc3)NC(=O)[C@H](C)NC(=O)[C@H](C)NC(=O)[C@H](CC(=O)O)NC(=O)[C@H](CC(=O)O)NC1=O)NC(=O)[C@H](CC(C)(C)C)NC(=O)[C@H](CC(=O)O)NC2=O` (stereo partly drawn) [I-1822, Ac-PL3-Asp-Npg-B5-Asp-Asp-Ala-Ala-Phe-Leu-PyrS1-3Thi-BztA-Gln-NH2], for which the IC50 in assay [1] was more than 20000 nM; in assay [2], 60 nM.

On to `CC(=O)N1CCC[C@]12CCCCCCC1(CCCCCCOC(=O)N3CC[C@@](C(=O)N[C@@H](Cc4ccsc4)C(=O)N[C@@H](Cc4csc5ccccc45)C(=O)N[C@@H](CCC(N)=O)C(N)=O)(C3)NC(=O)[C@H](CC(N)=O)NC(=O)[C@H](Cc3ccccc3)NC(=O)[C@H](C)NC(=O)[C@H](C)NC(=O)[C@H](CC(=O)O)NC(=O)[C@H](CC(=O)O)NC1=O)NC(=O)[C@H](CC(C)(C)C)NC(=O)[C@H](CC(=O)O)NC2=O` (stereo partly drawn) [I-1823, Ac-PL3-Asp-Npg-B5-Asp-Asp-Ala-Ala-Phe-Asn-PyrS-3Thi-BztA-Gln-NH2], for which the IC50 in assay [1] is more than 20000 nM; in assay [2] it was 41 nM.

With `CC(=O)N1CCC[C@]12CCCCCCC1(CCCCCCOC(=O)N3CC[C@@](C(=O)N[C@@H](Cc4ccsc4)C(=O)N[C@@H](Cc4csc5ccccc45)C(=O)N[C@@H](CCC(N)=O)C(N)=O)(C3)NC(=O)[C@H](CC(C)C)NC(=O)[C@H](Cc3ccccc3)NC(=O)[C@H](C)NC(=O)[C@H](C)NC(=O)[C@H](CC(=O)O)NC(=O)[C@H](CC(=O)O)NC1=O)NC(=O)[C@H](CC(C)(C)C)NC(=O)[C@H](CC(=O)O)NC2=O` (stereo partly drawn) [I-1824, Ac-PL3-Asp-Npg-B5-Asp-Asp-Ala-Ala-Phe-Leu-PyrS-3Thi-BztA-Gln-NH2], the IC50 was more than 20000 nM in assay [1] and 101 nM in assay [2].

As for `CC(=O)N1CCC[C@]12CC=CCCCC1(CCCC=CCOC(=O)N3CC(C(=O)N[C@@H](Cc4ccsc4)C(=O)N[C@@H](Cc4csc5ccccc45)C(=O)N[C@@H](CCC(N)=O)C(N)=O)(C3)NC(=O)[C@H](CC(C)C)NC(=O)[C@H](Cc3ccccc3)NC(=O)[C@H](C)NC(=O)[C@H](C)NC(=O)[C@H](CC(=O)O)NC(=O)[C@H](CC(=O)O)NC1=O)NC(=O)[C@H](CC(C)(C)C)NC(=O)[C@H](CC(=O)O)NC2=O` (stereo partly drawn) [I-1828, Ac-PL3-Asp-Npg-B5-Asp-Asp-Ala-Ala-Phe-Leu-Az-3Thi-BztA-Gln-NH2], the values for the IC50 in assay [1] and in assay [2] were more than 20000 nM and 264 nM, respectively.

`CC(=O)N1CCC[C@]12CC=CCCCC1(CCCC=CCCCOC(=O)N3CC[C@@](C(=O)N[C@@H](Cc4ccccc4Cl)C(=O)N[C@@H](Cc4csc5ccccc45)C(=O)N[C@@H](CCC(N)=O)C(N)=O)(C3)NC(=O)[C@H](CC(C)C)NC(=O)[C@H](Cc3ccccc3)NC(=O)[C@H](C)NC(=O)[C@H](C)NC(=O)[C@H](CN(CC(=O)O)CC(F)(F)F)NC(=O)[C@H](CC(=O)O)NC1=O)NC(=O)[C@H](CC(C)(C)C)NC(=O)[C@H](CC(=O)O)NC2=O` (stereo partly drawn) [I-1833, Ac-PL3-Asp-Npg-B5-Asp-TfeGA-Ala-Ala-Phe-Leu-PyrS2-2C1F-BztA-Gln-NH2]: the IC50 amounted to 6900 nM in assay [1] and 26 nM in assay [2].
